# From patent US9353141B2, “Galectoside inhibitors of galectins” (GALECTO BIOTECH AB, priority 2012, dated 2016)
# Where two headings read alike, the source gives them in different places.
# What was measured:
# Experiment in all cases: Fluorescence polarization-based galectin inhibition assay
# Type in all cases: binding
# [1] = molecular target: galectin-3 (Homo sapiens, UniProt P17931); conditions: 20° C., tdga-probe 20 nM, galectin-3 200 nM, read-out: Calculated Kd Galectin 3
# Source text: (§1) Identification of the substances was made by HRMS (Micromass Q-tof micro) and NMR (Bruker Ultrashield 400 plus, 400 MHz). Chemical shifts are reported downfield from Me4Si using residual […] (7.26 ppm) or CHD2OD (3.35 ppm) as reference. Chemical shifts and coupling constants were obtained from ^1H-NMR and proton resonances were assigned from COSY experiments. Purification was made by RF-HPLC (Beckman, system gold) or flash chromatography, using silica gel (Davisil 35-70 μm, 60 Å). Reactions were followed by TLC (Aluminum sheet, silica gel 60 F254) visualized with UV light, H2SO4 (aq) or an iso-vanillin/H2SO4/EtOH development solution. THF and Et2O were dried over sodium/benzophenone and distilled. CH2Cl2 was dried by molecular sieves (4 Å, 1.6 mm). Other solvents and reagents were commercially available and used without further purifications. Fluorescence polarization experiments were performed on a PolarStar instrument (BMG, Offenburg; Germany). Evaluation of 20-34 as inhibitors of galectins was performed by use of fluorescence polarization as described in the literature (Sorme et al., 2003a, 2004). Galectin concentrations and fluorescent probe choice and concentrations were as described in Cumpstey et al. 2005a, except for galectin-3 for which the probe tdga-probe described in Salomonsson et al. 2010 was used at 20 nM together with galectin-3 at 200 nM concentrations. Each inhibitor was tested in duplicate at several concentrations between 4 and 0.25 μM. All fluorescence polarization experiments were conducted at 20° C., except galectin-7 for which experiments were conducted at 0° C.
# [2] = molecular target: galectin-1 (Homo sapiens, UniProt P09382); conditions: 20° C., read-out: Calculated Kd Galectin 1
# Source text: as §1
# [3] = molecular target: galectin-9 (N-terminal domain) (Homo sapiens, UniProt O00182); conditions: 20° C., read-out: Calculated Kd Galectin 9 (N-terminal domain)
# Source text: as §1
# [4] = molecular target: T1, galectin-8 (N-terminal domain) (Homo sapiens, UniProt O00214); conditions: 20° C., read-out: Calculated Kd Galectin 8 (N-terminal domain)
# T1 sequence (O00214 19-152 limits assumed): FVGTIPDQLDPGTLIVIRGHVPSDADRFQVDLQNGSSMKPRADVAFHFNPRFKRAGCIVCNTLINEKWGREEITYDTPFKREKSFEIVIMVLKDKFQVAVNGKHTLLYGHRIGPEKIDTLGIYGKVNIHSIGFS
# Source text: as §1
# [5] = molecular target: galectin-7 (Homo sapiens, UniProt P47929); conditions: 0° C., read-out: Calculated Kd Galectin 7
# Source text: as §1
# [6] = molecular target: T2, galectin-4 (N-terminal domain) (Homo sapiens, UniProt P56470)
# T2 sequence (P56470 19-150 limits assumed): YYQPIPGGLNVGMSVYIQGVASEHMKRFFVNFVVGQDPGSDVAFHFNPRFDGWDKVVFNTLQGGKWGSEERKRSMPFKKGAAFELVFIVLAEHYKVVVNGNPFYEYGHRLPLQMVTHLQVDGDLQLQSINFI
# Source text: as §1
# [7] = molecular target: T3, galectin-4 (C-terminal domain) (Homo sapiens, UniProt P56470); conditions: 20° C., read-out: Calculated Kd Galectin 4 (C-terminal domain)
# T3 sequence (P56470 194-323 limits assumed): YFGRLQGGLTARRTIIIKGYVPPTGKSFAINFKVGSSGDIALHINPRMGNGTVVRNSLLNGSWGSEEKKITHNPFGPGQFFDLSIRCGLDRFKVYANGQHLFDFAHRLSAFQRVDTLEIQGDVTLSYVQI
# Source text: as §1
# [8] = molecular target: galectin-9 (C-terminal domain) (Homo sapiens, UniProt O00182); conditions: 20° C., read-out: Calculated Kd Galectin 9 (C-terminal domain)
# Source text: as §1
# [9] = fluorescence polarization, 20° C., read-out: Calculated Kd Galectin 4 (N-terminal domain)
# Sequence of galectin-9 (C-terminal domain) (O00182 227-355 limits assumed, species assumed): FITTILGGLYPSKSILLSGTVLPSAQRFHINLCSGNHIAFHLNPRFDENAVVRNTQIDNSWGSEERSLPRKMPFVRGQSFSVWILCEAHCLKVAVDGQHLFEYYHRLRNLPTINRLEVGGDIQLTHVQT
# Sequence of galectin-9 (N-terminal domain) (O00182 17-148 limits assumed, species assumed): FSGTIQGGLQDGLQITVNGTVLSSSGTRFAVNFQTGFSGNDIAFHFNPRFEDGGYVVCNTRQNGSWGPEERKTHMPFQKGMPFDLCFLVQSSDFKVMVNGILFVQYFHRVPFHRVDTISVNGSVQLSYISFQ
# Sequence of galectin-7 (P47929 whole entry, species assumed): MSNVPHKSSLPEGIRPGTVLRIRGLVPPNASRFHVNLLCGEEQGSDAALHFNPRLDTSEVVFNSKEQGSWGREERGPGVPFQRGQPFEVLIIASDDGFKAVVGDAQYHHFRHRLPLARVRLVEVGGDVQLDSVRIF
# Sequence of galectin-1 (P09382 whole entry, species assumed): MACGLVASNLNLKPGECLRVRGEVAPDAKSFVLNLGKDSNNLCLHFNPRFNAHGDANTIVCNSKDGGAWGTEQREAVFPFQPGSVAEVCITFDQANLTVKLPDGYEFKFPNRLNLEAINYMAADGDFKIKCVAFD
# Sequence of galectin-3 (P17931 whole entry, species assumed): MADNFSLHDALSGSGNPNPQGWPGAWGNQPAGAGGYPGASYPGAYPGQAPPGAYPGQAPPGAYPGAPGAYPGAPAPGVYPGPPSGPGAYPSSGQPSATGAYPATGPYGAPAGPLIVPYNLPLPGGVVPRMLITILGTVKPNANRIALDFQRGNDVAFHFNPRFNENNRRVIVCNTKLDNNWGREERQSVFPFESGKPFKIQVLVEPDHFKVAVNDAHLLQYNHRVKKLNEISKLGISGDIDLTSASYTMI
Kd [1] [µM],Kd [2] [µM],Kd [3] [µM],Kd [4] [µM],Kd [5] [µM],"Kd [6, 9] [µM]",Kd [7] [µM],Kd [6] [µM],Kd [8] [µM],SMILES
4.7,21,140,74,61,,,,,"O=c1oc2cc(Cl)ccc2cc1CO[C@H]1[C@@H](O)[C@@H](CO)O[C@@H](S[C@@H]2O[C@H](CO)[C@H](O)[C@H](OCc3cc4ccc(Cl)cc4oc3=O)[C@H]2O)[C@@H]1O [Compound 21, bis-{3-O-[(7-chloro-2H-1-benzopyran-2-on-3-yl)-methyl]-β-D-galactopyranosyl}sulfane]"
0.25,15.4,1.7,11,3.9,,156,49,2.4,"O=c1oc2ccccc2cc1CO[C@H]1[C@@H](O)[C@@H](CO)O[C@@H](S[C@@H]2O[C@H](CO)[C@H](O)[C@H](OCc3cc4ccccc4oc3=O)[C@H]2O)[C@@H]1O [Compound 20, bis-{3-O-[(2H-1-benzopyran-2-on-3-yl)-methyl]-β-D-galactopyranosyl}sulfane]"
0.097,3.4,3.5,47,,180,> 1000,,7.9,"O=c1oc2ccc(F)cc2cc1CO[C@H]1[C@@H](O)[C@@H](CO)O[C@@H](S[C@@H]2O[C@H](CO)[C@H](O)[C@H](OCc3cc4cc(F)ccc4oc3=O)[C@H]2O)[C@@H]1O [Compound 28, Bis-{3-O-[(6-fluoro-2H-1-benzopyran-2-on-3-yl)-methyl]-β-D-galactopyranosyl}sulfane]"
0.95,84,29,110,,> 500,> 500,,21,"O=c1oc2ccc(OC(F)(F)F)cc2cc1COC1C(O)[C@H](S[C@@H]2OC(CO)[C@H](O)C(OCc3cc4cc(OC(F)(F)F)ccc4oc3=O)C2O)OC(CO)[C@@H]1O (stereo partly drawn) [Compound 33, bis-{3-O-[(6-trifluoromethoxy-2H-1-benzopyran-2-on-3-yl)-methyl]-β-D-galactopyranosy}sulfane]"
8.1,25,39,62,,> 1000,> 1000,,17,"CC(C)(C)c1ccc2oc(=O)c(COC3C(O)[C@H](S[C@@H]4OC(CO)[C@H](O)C(OCc5cc6cc(C(C)(C)C)ccc6oc5=O)C4O)OC(CO)[C@@H]3O)cc2c1 (stereo partly drawn) [Compound 26, bis-{3-O-[(6-tert-butyl-2H-1-benzopyran-2-on-3-yl)-methyl]-β-D-galactopyranosy}sulfane]"
9.4,200,> 200,> 700,,> 500,> 500,,> 500,"Cc1ccc2cc(COC3C(O)[C@H](S[C@@H]4OC(CO)[C@H](O)C(OCc5cc6ccc(C)cc6oc5=O)C4O)OC(CO)[C@@H]3O)c(=O)oc2c1 (stereo partly drawn) [Compound 34, bis-{3-O-[(7-methyl-2H-1-benzopyran-2-on-3-yl)-methyl]-β-D-galactopyranosy}sulfane]"
0.15,20,8.9,140,,180,> 300,,,"O=c1oc2ccc(O)cc2cc1COC1C(O)[C@H](S[C@@H]2OC(CO)[C@H](O)C(OCc3cc4cc(O)ccc4oc3=O)C2O)OC(CO)[C@@H]1O (stereo partly drawn) [Compound 24, bis-{3-O-[(6-hydroxy-2H-1-benzopyran-2-on-3-yl)-methyl]-β-D-galactopyranosy}sulfane]"
0.076,3.9,1.5,40,,32,> 300,,,"O=c1oc2cc(O)ccc2cc1COC1C(O)[C@H](S[C@@H]2OC(CO)[C@H](O)C(OCc3cc4ccc(O)cc4oc3=O)C2O)OC(CO)[C@@H]1O (stereo partly drawn) [Compound 23, bis-{3-O-[(7-hydroxy-2H-1-benzopyran-2-on-3-yl)-methyl]-β-D-galactopyranosy}sulfane]"
6,7.9,> 200,34,,430,100,,86,"O=c1oc2ccc(Cl)cc2cc1COC1C(O)[C@H](S[C@@H]2OC(CO)[C@H](O)C(OCc3cc4cc(Cl)ccc4oc3=O)C2O)OC(CO)[C@@H]1O (stereo partly drawn) [Compound 27, bis-{3-O-[(6-chloro-2H-1-benzopyran-2-on-3-yl)-methyl]-β-D-galactopyranosy}sulfane]"

# The next lines start with the compound.
SMILES,Kd [1] [µM],Kd [2] [µM],Kd [3] [µM],Kd [4] [µM],Kd [5] [µM],"Kd [6, 9] [µM]",Kd [7] [µM],Kd [6] [µM],Kd [8] [µM]
"O=c1oc2ccc3ccccc3c2cc1CO[C@H]1[C@@H](O)[C@@H](CO)O[C@@H](S[C@@H]2O[C@H](CO)[C@H](O)[C@H](OCc3cc4c(ccc5ccccc54)oc3=O)[C@H]2O)[C@@H]1O [Compound 25, bis-{3-O-[(3H-naphtho[2,1-b]pyran-3-on-2-yl)-methyl]-β-D-galactopyranosyl}sulfane]",0.51,22,4.7,> 300,,110,> 300,,
"CO[C@@H]1OC(CO)[C@H](O)C(O)C1O (stereo partly drawn) [methyl β-D-galactoside, reference compound]",,,3400,,4800,,,,5000
"O=c1oc2ccc(F)c(F)c2cc1CO[C@H]1[C@@H](O)[C@@H](CO)O[C@@H](S[C@@H]2O[C@H](CO)[C@H](O)[C@H](OCc3cc4c(F)c(F)ccc4oc3=O)[C@H]2O)[C@@H]1O [Compound 32, Bis-{3-O-[(5,6-difluoro-2H-1-benzopyran-2-on-3-yl)-methyl]-β-D-galactopyranosyl}sulfane]",0.032,3.9,1.1,41,,22,> 500,,1.5
"O=c1oc2cccc(Cl)c2cc1CO[C@H]1[C@@H](O)[C@@H](CO)O[C@@H](S[C@@H]2O[C@H](CO)[C@H](O)[C@H](OCc3cc4c(Cl)cccc4oc3=O)[C@H]2O)[C@@H]1O [Compound 30, bis-{3-O-[(5-chloro-2H-1-benzopyran-2-on-3-yl)-methyl]-β-D-galactopyranosyl}sulfane]",0.17,25,54,28,,55,> 1000,,16
"O=C(OC1C(O)[C@H](S[C@@H]2OC(CO)[C@H](O)C(OC(=O)c3ccc4ccccc4c3)C2O)OC(CO)[C@@H]1O)c1ccc2ccccc2c1 (stereo partly shown) [Compound 35, reference compound]",10.7,14.7,2.8,,48,,,,
"O=c1oc2cccc(F)c2cc1CO[C@H]1[C@@H](O)[C@@H](CO)O[C@@H](S[C@@H]2O[C@H](CO)[C@H](O)[C@H](OCc3cc4c(F)cccc4oc3=O)[C@H]2O)[C@@H]1O [Compound 31, Bis-{3-O-[(5-fluoro-2H-1-benzopyran-2-on-3-yl)-methyl]-β-D-galactopyranosyl}sulfane]",0.061,8.7,7,28,,46,540,,5.5
"O=c1oc2cc(F)c(F)cc2cc1COC1C(O)[C@H](S[C@@H]2OC(CO)[C@H](O)C(OCc3cc4cc(F)c(F)cc4oc3=O)C2O)OC(CO)[C@@H]1O (stereo partly drawn) [Compound 29, bis-{3-O-[(6,7-difluoro-2H-1-benzopyran-2-on-3-yl)-methyl]-β-D-galactopyranosy}sulfane]",0.11,1.6,3,19,,44,220,,2.3
"O=C(NC1C(O)[C@H](S[C@@H]2OC(CO)[C@H](O)C(NC(=O)c3ccc4ccccc4c3)C2O)OC(CO)[C@@H]1O)c1ccc2ccccc2c1 (stereo partly shown) [Compound 36, reference compound]",0.16,9.6,0.73,> 100,1.7,,,,
